A short description of data set [1]: Acute toxicity (LD50, method of Lichtfield and Wilcoxon). The conditions noted are these: mouse, in vivo, mice. The protocol:
The compounds of the invention were administered by intragastric or by intravenous route to Charles River stock mice. The lethal doses for 50% (LD50) were determined graphically according to the method of Lichtfield and Wilcoxon (J.Pharmacol.Exp. Therap. […], 96, 99).

For another data set, the system named is Charles River stock mice. Nature of the data set: Hypobaric anoxia test on mice (survival time). In kind it is in vivo. The protocol: Charles River stock mice of the same sex, weighting about 20±2 g are shared into three lots of 10 animals each. The lots 1 and 2 comprise treated animals, i.e. those having received either a substance to be tested. The third lot comprises control animals.
The compounds examined are administered p.o. 30 minutes before the experiment.
The animals are placed in an atmosphere improverished in oxygen by creating a partial vacuum (190 mm Hg, corresponding to 5.25% oxygen), in about 30 seconds.
The survival time of the mice is measured with a chronometer. Said time is increased by the agents capable of enhancing oxygenation of tissues and more particularly brain oxygenation.
Under the above described conditions, the dose which provides a 50% increase of the average survival time of the animals may be expressed as the 50% effective dose (here abbreviated as ED50).

The subject of another data set is vertebral flow rate. Nature of the data set: Vertebral flow rate in anesthetized dogs. The conditions noted are these: 5.5 mg/kg i.v. In kind it is in vivo. Here is the method: (§1) In addition, a substantial increase of vertebral flow rate was noticed upon dogs previously anesthetized with sodium pentobarbital (30 mg/kg i.v.). More particularly a does of 5.5 mg/kg i.v. of N-ethylchanodesethylapovincamine causes a 50 to 100% increase of vertebral flow rate. Said effect on the flow rate is selective, the increase of femoral flow rate being negligible.

A further data set concerns femoral flow rate. As to the kind of experiment: Femoral flow rate in anesthetized dogs. In kind it is in vivo. The conditions noted are these: 5.5 mg/kg i.v.; dogs anesthetized with sodium pentobarbital (30 mg/kg i.v.). Here is the method:
as §1

In the case of `CCN1CCc2c3n(c4ccccc24)C(C(=O)OC)=CCC31` (stereo not drawn) [N-ethylchanodesethylapovincamine], the median lethal dose (LD50) in data set [1] (iv) was found to be 55 mg/kg; in data set [1] (po, p.o. (intragastric)), 1120 mg/kg. For the same molecule, the median effective dose (ED50) with Charles River stock mice (Mus musculus, po, p.o. 30 minutes before the experiment, 190 mm Hg, corresponding to 5.25% oxygen, read-out: ED50 (dose which provides a 50% increase of the average survival time)) was found to be 225 mg/kg. The LD50/ED50 in the data set with Charles River stock mice (p.o.) worked out at 5. Also, in the data set on vertebral flow rate, the “effect on the flow rate (vertebral versus femoral)” value is reported as “selective”. The “increase of femoral flow rate” value with femoral flow rate is “negligible”.

What is called LD50 is the dose expected to kill half of the subjects tested. The ED50 is the dose that gives a 50% effect, or the effect in half of the subjects.

For the origin of these results see patent publication US4200638A, “Indole derivatives and therapeutically acting drugs” (Omnium Chimique Societe Anonyme, priority 1977, dated 1980).
